Source: patent publication US9730937B2, “RAF kinase modulator compounds and methods of use thereof” (AMBIT BIOSCIENCES CORPORATION, priority 2008, dated 2017)
Counter-ions that a name gives are not always drawn. Like-named read-outs stand apart in the source and are kept apart here.

Columns and labels:
[1] = tested on: panel of 290 distinct kinases (321 in the larger panel), excluding mutant variants; details: kinase selectivity score, class symbols
Method: The liganded beads were blocked with excess biotin and washed with blocking buffer (SeaBlock (Pierce), 1% BSA, 0.05% Tween 20, 1 mM DTT) to remove unbound ligand and to reduce non-specific binding. […] Test compounds were prepared as 100× stocks in DMSO and rapidly diluted into the aqueous environment. DMSO was added to control assays lacking a test compound. Primary screen interactions were performed in polypropylene 384-well plates in a final volume of 34 μL, while Kd determinations were performed in polystyrene 96-well plates in a final volume of 135 μL. […] The kinase concentration in the eluates was measured by quantitative PCR. Each kinase was tested individually against each compound. KdS were determined using eleven serial threefold dilutions. A selectivity score, which is a quantitative measure of selectivity of a compound against a panel of enzymes, may be calculated for a compound by dividing the number of enzymes for which a compound meets a set criteria, (for example, a binding constant of 100 nM or less), by the total number of enzymes tested. […] (Note, for those compounds tested in a larger kinase panel, as indicated by an asterisk (*) next to the S35 score, the divisor is 321 (i.e. the larger panel contains 321 distinct kinases, excluding mutant variants.)).

mutant BRAF kinase = mutant BRAF kinase (Homo sapiens (Human), UniProt P15056, V600E); details: read-out: BRAF V600E Kd, class symbols
Chain of mutant BRAF kinase (P15056 whole entry V600E): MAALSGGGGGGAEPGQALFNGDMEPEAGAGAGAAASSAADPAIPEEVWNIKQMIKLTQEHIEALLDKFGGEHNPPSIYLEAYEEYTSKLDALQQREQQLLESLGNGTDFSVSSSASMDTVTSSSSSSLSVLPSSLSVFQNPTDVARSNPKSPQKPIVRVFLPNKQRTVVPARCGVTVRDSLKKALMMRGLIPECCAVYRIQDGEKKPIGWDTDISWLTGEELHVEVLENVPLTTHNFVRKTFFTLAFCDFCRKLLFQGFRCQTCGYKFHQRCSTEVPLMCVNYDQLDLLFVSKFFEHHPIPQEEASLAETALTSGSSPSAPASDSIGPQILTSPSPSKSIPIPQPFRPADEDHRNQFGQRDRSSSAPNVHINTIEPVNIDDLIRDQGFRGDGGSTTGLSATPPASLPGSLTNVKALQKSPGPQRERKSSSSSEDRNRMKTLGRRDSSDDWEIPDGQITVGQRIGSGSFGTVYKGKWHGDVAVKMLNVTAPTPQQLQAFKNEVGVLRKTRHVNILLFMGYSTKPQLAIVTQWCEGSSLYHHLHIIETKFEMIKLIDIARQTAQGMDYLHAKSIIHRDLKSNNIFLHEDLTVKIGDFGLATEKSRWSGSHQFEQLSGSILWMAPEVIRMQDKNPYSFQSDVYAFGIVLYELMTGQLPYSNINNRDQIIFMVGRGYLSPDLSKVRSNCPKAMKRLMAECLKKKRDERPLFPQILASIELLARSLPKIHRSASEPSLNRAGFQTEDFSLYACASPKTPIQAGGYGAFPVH

[2] = value marked * (larger kinase panel)

| SMILES | S35 ([1]; 290 distinct kinases) | Kd (mutant BRAF kinase) [µM] | S35 [1, 2] |
| --- | --- | --- | --- |
| COc1cc2ncnc(Sc3cccc(NC(=O)Nc4cc(C(C)(C)C)on4)c3)c2cc1OCCN1CCN(CCO)CC1 [Ex 68, 1-(5-tert-butylisoxazol-3-yl)-3-(3-(6-(2-(4-(2-hydroxyethyl)piperazin-1-yl)ethoxy)-7-methoxyquinazolin-4-ylthio)phenyl)urea] | C (0.20 < C ≦ 0.40) | < 0.25 |  |
| COCCOc1cc2ncnc(Sc3cccc(NC(=O)Nc4cc(C(C)(C)C)on4)c3)c2cc1OCCOC [Ex 53, 1-{3-[6,7-bis(2-methoxyethoxy)quinazolin-4-ylthio]phenyl}-3-(5-tert-butylisoxazol-3-yl)urea hydrochloride] | C (0.20 < C ≦ 0.40) | < 0.25 |  |
| COc1cc2c(Oc3cccc(NC(=O)Nc4cc(C(C)(C)C)on4)c3)ncnc2cc1O[C@@H]1CCN(C)C1 [Ex 99, (R)-1-(5-tert-butylisoxazol-3-yl)-3-(3-(6-methoxy-7-(1-methylpyrrolidin-3-yloxy)quinazolin-4-yloxy)phenyl)urea mono acetate] | C (0.20 < C ≦ 0.40) | < 0.25 |  |
| COc1cc2ncnc(Sc3cccc(NC(=O)Nc4cc(C(C)(C)C)nn4C)c3)c2cc1OC [Ex 157, 1-(3-tert-butyl-1-methyl-1H-pyrazol-5-yl)-3-(3-(6,7-dimethoxyquinazolin-4-ylthio)phenyl)urea] |  | < 0.25 | C* (0.20 < C ≦ 0.40) |
| COCCOc1cc2ncnc(Sc3cccc(NC(=O)Nc4cc(C(C)(C)C)on4)c3)c2cc1OC [Ex 52, 1-(5-tert-butylisoxazol-3-yl)-3-{3-[6-methoxy-7-(2-methoxyethoxy)quinazolin-4-ylthio]phenyl}urea hydrochloride] | C (0.20 < C ≦ 0.40) | < 0.25 |  |
| COc1cc2c(Sc3cccc(NC(=O)Nc4cc(C(C)(C)C)on4)c3)ncnc2cc1OCCCN1CCCCC1 [Ex 76, 1-(5-tert-butylisoxazol-3-yl)-3-(3-(6-methoxy-7-(3-(piperidin-1-yl)propoxy)quinazolin-4-ylthio)phenyl)urea] | D (D > 0.40) | < 0.25 |  |
| COc1cc2ncnc(Sc3cccc(NC(=O)Nc4cc(C(C)(C)C)on4)c3)c2cc1OCCCN1CCC(CO)CC1 [Ex 58, 1-(5-tert-butylisoxazol-3-yl)-3-(3-(6-(3-(4-(hydroxymethyl)piperidin-1-yl)propoxy)-7-methoxyquinazolin-4-ylthio)phenyl)urea] | D (D > 0.40) | < 0.25 |  |
| COc1cc2ncnc(Sc3cccc(NC(=O)Nc4cc(C(C)(C)C)on4)c3)c2cc1OCCCN1CCCCC1 [Ex 57, 1-(5-tert-butylisoxazol-3-yl)-3-(3-(7-methoxy-6-(3-(piperidin-1-yl)propoxy)quinazolin-4-ylthio)phenyl)urea] | C (0.20 < C ≦ 0.40) | < 0.25 |  |
| COc1cc2c(Oc3cccc(NC(=O)Nc4cc(C(C)(C)C)on4)c3)ncnc2cc1OCCN1CCS(=O)(=O)CC1 [Ex 39, 1-(5-tert-butyl-isoxazol-3-yl)-3-(3-{7-[2-(1,1-dioxo-116-thiomorpholin-4-yl)-ethoxy]-6-methoxy-quinazolin-4-yloxy}-phenyl)-urea] | C (0.20 < C ≦ 0.40) | < 0.25 |  |
| COCCOc1cc2ncnc(Oc3cccc(NC(=O)Nc4cc(C(C)(C)C)on4)c3)c2cc1OCCOC [Ex 12, 1-{3-[6,7-bis(2-methoxyethoxy)quinazolin-4-yloxy]phenyl}-3-(5-tert-butylisoxazol-3-yl)urea hydrochloride] | C (0.20 < C ≦ 0.40) | < 0.25 |  |
| COc1cc2ncnc(Sc3cccc(NC(=O)Nc4cc(C(C)(C)C)on4)c3)c2cc1OCCN1CCC(CO)CC1 [Ex 66, 1-(5-tert-butylisoxazol-3-yl)-3-(3-(6-(2-(4-(hydroxymethyl)piperidin-1-yl)ethoxy)-7-methoxyquinazolin-4-ylthio)phenyl)urea] | C (0.20 < C ≦ 0.40) | < 0.25 |  |
| CC(C)(C)c1cc(NC(=O)Nc2cccc(Sc3ncnc4ccc(OCCCN5CCS(=O)(=O)CC5)cc34)c2)no1 [Ex 90, 1-(5-tert-butyl-isoxazol-3-yl)-3-(3-{6-[3-(1,1-dioxo-thiomorpholin-4-yl)-propoxy]-quinazolin-4-ylsulfanyl}-phenyl)-urea] | C (0.20 < C ≦ 0.40) | < 0.25 |  |
| COc1cc2ncnc(Sc3cccc(NC(=O)Nc4cc(C(C)(C)C)on4)c3)c2cc1OC [Ex 46, 1-(5-tert-butylisoxazol-3-yl)-3-(3-(6,7-dimethoxyquinazolin-4-ylthio)phenyl)urea] | C (0.20 < C ≦ 0.40) | < 0.25 |  |
| COc1cc2ncnc(Oc3cccc(NC(=O)Nc4ccc(Cl)c(C(F)(F)F)c4)c3)c2cc1OC [Ex 176, 1-(4-chloro-3-(trifluoromethyl)phenyl)-3-(3-(6,7-dimethoxyquinazolin-4-yloxy)phenyl)urea] | C (0.20 < C ≦ 0.40) | < 0.25 |  |
| COc1cc2ncnc(Oc3cccc(NC(=O)Nc4cc(C(C)(C)C)on4)c3)c2cc1OCCN1CCN(CCO)CC1 [Ex 19, 1-(5-tert-butylisoxazol-3-yl)-3-(3-(6-(2-(4-(2-hydroxyethyl)piperazin-1-yl)ethoxy)-7-methoxyquinazolin-4-yloxy)phenyl)urea] | D (D > 0.40) | < 0.25 |  |
| COc1cc2ncnc(Sc3cccc(NC(=O)Nc4cc(C(C)(C)C)on4)c3)c2cc1OCCCN1CCN(S(C)(=O)=O)CC1 [Ex 60, 1-(5-tert-butylisoxazol-3-yl)-3-(3-(7-methoxy-6-(3-(4-(methylsulfonyl)piperazin-1-yl)propoxy)quinazolin-4-ylthio)phenyl)urea] | C (0.20 < C ≦ 0.40) | < 0.25 |  |
| CC(C)(C)c1cc(NC(=O)Nc2cccc(Oc3ncnc4cc5c(cc34)OCCO5)c2)no1 [Ex 14, 1-(5-tert-butylisoxazol-3-yl)-3-[3-(7,8-dihydro-[1,4]dioxino[2,3-g]quinazolin-4-yloxy)phenyl]urea hydrochloride] | C (0.20 < C ≦ 0.40) | < 0.25 |  |
| COc1cc2c(Sc3cccc(NC(=O)Nc4cc(C(C)(C)C)on4)c3)ncnc2cc1OCCCN1CCN(CCO)CC1 [Ex 75, 1-(5-tert-butylisoxazol-3-yl)-3-(3-(7-(3-(4-(2-hydroxyethyl)piperazin-1-yl)propoxy)-6-methoxyquinazolin-4-ylthio)phenyl)urea] | D (D > 0.40) | < 0.25 |  |
| COc1cc2ncnc(Sc3cccc(NC(=O)Nc4cc(C(C)(C)C)on4)c3)c2cc1OCCN1CCN(S(C)(=O)=O)CC1 [Ex 69, 1-(5-tert-butylisoxazol-3-yl)-3-(3-(7-methoxy-6-(2-(4-(methylsulfonyl)piperazin-1-yl)ethoxy)quinazolin-4-ylthio)phenyl)urea] | C (0.20 < C ≦ 0.40) | < 0.25 |  |
| COc1cc2ncnc(Sc3cccc(NC(=O)Nc4cc(C(C)(CF)CF)no4)c3)c2cc1OC [Ex 160, 1-[3-(1,3-difluoro-2-methylpropan-2-yl)isoxazol-5-yl]-3-[3-(6,7-dimethoxyquinazolin-4-ylthio]phenyl)urea] |  | < 0.25 | C* (0.20 < C ≦ 0.40) |
| COc1cc2ncnc(Oc3cccc(NC(=O)Nc4cc(C(C)(C)C)on4)c3)c2cc1OCCN1CCOCC1 [Ex 20, 1-(5-tert-butylisoxazol-3-yl)-3-(3-(7-methoxy-6-(2-morpholinoethoxy)quinazolin-4-yloxy)phenyl)urea] | C (0.20 < C ≦ 0.40) | < 0.25 |  |
| COc1cc2ncnc(Oc3cccc(NC(=O)Nc4cc(C(C)(C)C)on4)c3)c2cc1OCCCN1CCN(C)CC1 [Ex 21, 1-(5-tert-butylisoxazol-3-yl)-3-(3-(7-methoxy-6-(3-(4-methylpiperazin-1-yl)propoxy)quinazolin-4-yloxy)phenyl)urea] | D (D > 0.40) | < 0.25 |  |
| COc1cc2ncnc(Oc3cccc(NC(=O)Nc4cc(C(C)(C)C)on4)c3)c2cc1OCCCN1CCC(CO)CC1 [Ex 24, 1-(5-tert-butylisoxazol-3-yl)-3-(3-(6-(3-(4-(hydroxymethyl)piperidin-1-yl)propoxy)-7-methoxyquinazolin-4-yloxy)phenyl)urea] | D (D > 0.40) | < 0.25 |  |
| COc1cc2c(Oc3cccc(NC(=O)Nc4cc(C(C)(C)C)on4)c3)ncnc2cc1OCCCN1CC[C@@H](O)C1 [Ex 34, (R)-1-(5-tert-Butylisoxazol-3-yl)-3-(3-(7-(3-(3-hydroxypyrrolidin-1-yl)propoxy)-6-methoxyquinazolin-4-yloxy)phenyl)urea] |  | < 0.25 | D* (D > 0.40) |
| COc1cc2c(Sc3cccc(NC(=O)Nc4cc(C(C)(C)C)on4)c3)ncnc2cc1OCCCN1CCN(C)CC1 [Ex 73, 1-(5-tert-butylisoxazol-3-yl)-3-(3-(6-methoxy-7-(3-(4-methylpiperazin-1-yl)propoxy)quinazolin-4-ylthio)phenyl)urea] | D (D > 0.40) | < 0.25 |  |
| CCOc1cc2c(Sc3cccc(NC(=O)Nc4cc(C(C)(C)C)on4)c3)ncnc2cc1OC [Ex 56, 1-(5-tert-butylisoxazol-3-yl)-3-(3-(6-ethoxy-7-methoxyquinazolin-4-ylthio)phenyl)urea] | B (0.10 < B ≦ 0.20) | < 0.25 |  |
| COc1cc2c(Sc3cccc(NC(=O)Nc4cc(C(C)(C)C)on4)c3)ncnc2cc1OCCN1CCN(C)CC1 [Ex 83, 1-(5-tert-butylisoxazol-3-yl)-3-(3-(6-methoxy-7-(2-(4-methylpiperazin-1-yl)ethoxy)quinazolin-4-ylthio)phenyl)urea] | C (0.20 < C ≦ 0.40) | < 0.25 |  |
| COc1cc2ncnc(Oc3cccc(NC(=O)Nc4cc(C(C)(C)C)on4)c3)c2cc1OCCN1CCS(=O)(=O)CC1 [Ex 91, 1-(5-tert-butyl-isoxazol-3-yl)-3-(3-{6-[2-(1,1-dioxo-thiomorpholin-4-yl)-ethoxy]-7-methoxy-quinazolin-4-yloxy}-phenyl)-urea] | C (0.20 < C ≦ 0.40) | < 0.25 |  |
| COCCOc1cc2c(Sc3cccc(NC(=O)Nc4cc(C(C)(C)C)on4)c3)ncnc2cc1OC [Ex 45, 1-(5-tert-butylisoxazol-3-yl)-3-(3-(7-methoxy-6-(2-methoxyethoxy)quinazolin-4-ylthio)phenyl)urea] | C (0.20 < C ≦ 0.40) | < 0.25 |  |
